Measured values reported in publication PMC11053098, “Unravelling and reconstructing the biosynthetic pathway of bergenin” (Nature Communications, 2024).

Experiments:
AjOMT2 = system: T1, AjOMT2; experiment: HPLC methyltransferase assay; format: biochemical, Ardisia japonica; conditions: co-substrate SAM; metal-dependent (Mg2+); details in Supplementary Methods 5-7; read-out: apparent Km
T1 construct: cloned in pET28a (BamHI/EcoRI), E. coli Transetta (DE3), Ni-NTA purified

AjCGT1 = system: T2, AjCGT1; experiment: HPLC glycosyltransferase assay; format: biochemical, Ardisia japonica; conditions: co-substrate UDP-Glc; details in Supplementary Methods 5-7; substrate unstable in buffer; read-out: apparent Km
T2 construct: full-length cDNA in pET28a (BamHI/EcoRI), E. coli Transetta (DE3), Ni-NTA purified

| Km (AjCGT1) [µM] | SMILES | Km (AjOMT2) [µM] |
| --- | --- | --- |
|  | O=C(O)c1cc(O)c(O)c(O)c1 [compound 2, GA] | 72 |
| 265 | COc1c(O)cc(C(=O)O)cc1O [compound 3, 4-OMGA] |  |
|  | O=C1O[C@@H]2[C@@H](O)[C@H](O)[C@@H](CO)O[C@H]2c2c1cc(O)c(O)c2O [compound 6, norbergenin] | 494 |
